Measured values reported in article PMC12441834, “Highly Potent and Subtype-Selective Sperm-Specific Potassium Channel SLO3 Inhibitors Display High Tissue Exposure in the Murine Female Reproductive Tract” (ACS Pharmacology & Translational Science, 2025).
Read-outs that look alike come from different tables or passages of the source.

How the values were obtained:
[1] = molecular target: T1, hSLO2.1 (Homo sapiens, UniProt Q6UVM3); assay: SLO2.1 inhibition in HEK cells; assay type: cell-based; conditions: HEK293; read-out: HEK hSLO2.1 % inhib. 10 μM
T1 construct: expressed in transfected cells; host or cells: HEK
T1 sequence (Q6UVM3 1-1135): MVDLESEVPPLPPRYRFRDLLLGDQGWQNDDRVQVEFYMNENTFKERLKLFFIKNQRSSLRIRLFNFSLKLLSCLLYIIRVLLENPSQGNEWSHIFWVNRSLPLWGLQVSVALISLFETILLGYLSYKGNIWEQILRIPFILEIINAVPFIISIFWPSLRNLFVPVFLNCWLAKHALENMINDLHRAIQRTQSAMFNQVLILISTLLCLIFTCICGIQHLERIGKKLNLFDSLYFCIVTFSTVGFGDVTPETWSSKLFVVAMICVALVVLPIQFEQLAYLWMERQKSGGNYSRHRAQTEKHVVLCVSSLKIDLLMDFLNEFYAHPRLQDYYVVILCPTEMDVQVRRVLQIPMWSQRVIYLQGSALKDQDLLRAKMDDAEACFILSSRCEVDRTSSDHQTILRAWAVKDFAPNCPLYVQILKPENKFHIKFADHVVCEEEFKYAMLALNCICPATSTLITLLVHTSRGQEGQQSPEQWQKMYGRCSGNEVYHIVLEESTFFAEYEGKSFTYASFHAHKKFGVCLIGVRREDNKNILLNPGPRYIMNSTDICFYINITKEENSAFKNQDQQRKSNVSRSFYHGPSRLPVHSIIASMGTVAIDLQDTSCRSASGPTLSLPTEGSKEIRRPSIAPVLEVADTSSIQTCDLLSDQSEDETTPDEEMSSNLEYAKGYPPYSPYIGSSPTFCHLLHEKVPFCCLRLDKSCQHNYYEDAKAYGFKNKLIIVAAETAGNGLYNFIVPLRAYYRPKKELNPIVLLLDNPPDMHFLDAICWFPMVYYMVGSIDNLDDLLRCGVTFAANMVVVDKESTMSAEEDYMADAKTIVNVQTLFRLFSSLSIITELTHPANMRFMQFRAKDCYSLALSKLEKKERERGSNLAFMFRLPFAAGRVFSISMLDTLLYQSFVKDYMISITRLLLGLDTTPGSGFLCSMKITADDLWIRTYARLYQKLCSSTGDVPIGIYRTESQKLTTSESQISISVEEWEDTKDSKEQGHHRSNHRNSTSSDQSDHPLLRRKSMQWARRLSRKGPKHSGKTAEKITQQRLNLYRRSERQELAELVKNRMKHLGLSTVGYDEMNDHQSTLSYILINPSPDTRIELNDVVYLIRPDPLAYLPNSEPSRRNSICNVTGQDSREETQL

[2] = Intrinsic clearance in liver microsomes; assay type: in vitro ADME, mouse; conditions: for Mouse CLhep, % Hepatic blood flow: mouse liver microsomes; for CLhep predicted at 1 μM: mouse, liver microsomes, pH 7.4, mouse liver microsomes, read-out: Mouse CLhep (in vitro hepatic clearance from microsomal CLint)
Method: The in vitro intrinsic clearance (CLint) was investigated in commercially obtained hepatic microsomes from mouse, rat, and human donors using the substrate depletion (i.e., loss-of-parent vs time, or half-life (t 1/2) method) approach with analyte detection via liquid chromatography–tandem mass spectrometry (LC-MS/MS). For each species, mean %parent remaining values at each time point were calculated from replicate raw data (analyte:IS peak area ratios) and used to determine in vitro t 1/2 and CLint.
Experiments were carried out by using a robot-assisted liquid handler (Bravo with BenchCell, Agilent). The compound was incubated (1 μM final concentration) in buffer (100 mM potassium phosphate pH 7.4 with 3 mM MgCl2) containing hepatic microsomes (0.5 mg/mL final concentration) from each species, discretely, at 37 °C under constant orbital shaking. After 5 min (preincubation), reactions were initiated by the addition of nicotinamide adenine dinucleotide phosphate (NADPH, 1 mM final concentration). At selected time intervals (0, 3, 7, 15, 25, and 45 min) postaddition of NADPH, aliquots (50 μL) were taken and placed into a 96-shallow-well plate containing ice-cold acetonitrile (150 μL) with carbamazepine (IS, 50 nM). The plates were then centrifuged (3000 rcf at 4 °C) for 10 min. The supernatants were transferred to a new 96-shallow-well daughter plate and diluted (1:1 v/v) with water (Milli-Q filtered). The plates were then sealed for preparation for LC-MS/MS analysis (see below).
Analyte:IS peak area ratios generated by LC-MS/MS were used to construct natural log-transformed %parent remaining vs time plots (using t = 0 min post-NADPH addition sample data as the starting point set to 100%). In vitro compound t 1/2 values were calculated by using the following equation: t1/2=ln(2)/k where k is the slope from the linear regression analysis of the natural log-transformed data (using means from all replicates at each time point). Resulting t 1/2 values were then used to calculate hepatic CLint values according to the following equation and with the use of species-specific scale-up factors for liver weight (grams) per total body weight (kg): CLint=0.693/invitrot1/2×1mLincubation/0.5mgmicrosomes×45mgmicrosomes/1gramliver×garamliver/kgbodywt
^aScale-up factors used are 45 (rat) and 20 (human).
Predicted hepatic clearance (CLhep) was calculated by using the following equation: CLhep=Qh×CLint/Qh+CLint
Q h represents hepatic blood flow (mL/min/kg): 21 for humans, 70 for rats, and 90 for mouse.

[3] = Plasma protein binding, equilibrium dialysis; assay type: in vitro ADME
Method: Determination of compounds’ fraction unbound (f u ) in plasma from mouse, rat, and human was conducted in vitro via equilibrium dialysis using HTDialysis membrane plates. Dialysis membranes were hydrated as described by the manufacturer and inserted into the HTD plate, which was assembled and prepared for sample addition by the dispensing of blank buffer (Dulbecco’s Phosphate-Buffered Saline, 100 μL/well) into the trans chamber of each membrane-split well. Each compound was diluted into plasma from each species (5 μM final concentration), which was aliquoted in triplicate in the cis chamber of the prepared HTD plate wells. The HTD plate was sealed and incubated for 6 h at 37 °C. Following incubation, each well (both cis and trans chambers) was transferred (20 μL) to the corresponding wells of a 96-shallow-well (V-bottom) plate. The daughter plates were then matrix-matched (buffer-side wells received an equal volume of plasma, and plasma-side wells received an equal volume of buffer), and an extraction solution (120 μL; acetonitrile containing 50 nM carbamazepine as an internal standard (IS)) was added to all wells of both daughter plates to precipitate protein and extract the test article. The plates were then sealed and centrifuged (3500 rcf) for 10 min at ambient temperature. Supernatant (60 μL) from each well of the daughter plates was then transferred to the corresponding wells of new daughter plates (96-shallow-well, V-bottom) containing water (Milli-Q, 60 μL/well), and the plates were sealed in preparation for liquid chromatography–tandem mass spectrometry (LC-MS/MS) analysis (see below).

[4] = human, fraction unbound, equilibrium dialysis, 5 μM, read-out: Plasma Protein Binding (fu) Human
[5] = mouse, equilibrium dialysis, 5 μM, read-out: Plasma Protein Binding (fu) Mouse
[6] = rat, equilibrium dialysis, 5 μM, read-out: Plasma Protein Binding (fu) Rat

Compound	Mouse CLhep, % Hepatic blood flow [2] [%]	CLhep predicted at 1 μM [2] [mL/min/kg]	fraction unbound at 6 h, 5 μM [3, 4]	fraction unbound at 6 h, 5 μM [3, 5]	fraction unbound at 6 h, 5 μM [3, 6]	inhibition at 10 µM [1] [%]	fraction unbound at 6 h, 5 μM ([3]; human, fraction unbound as percent, read-out: fu in human plasma)	fraction unbound at 6 h, 5 μM ([3]; mouse, read-out: fu in mouse plasma)	fraction unbound at 6 h, 5 μM ([3]; rat, read-out: fu in rat plasma)
O=C(c1ccc(OCc2ccc(OC(F)(F)F)cc2)cc1)N1CCN(c2ccc(C(F)(F)F)cn2)CC1 [VU6032735]	56	50.1	0.0005	0.012	0.024	22			
Cc1cc(Cl)cc2sc(OC3CCN(C(=O)CCCS(=O)(=O)c4cccc(Br)c4)CC3F)nc12 (stereo not shown) [VU6045330]						22			
Cc1cc(Cl)cc2sc(O[C@H]3CCN(C(=O)CCCS(=O)(=O)c4cccc(Br)c4)C[C@H]3F)nc12 [VU6047606]	93	> 60	0.001	0.0002	0.001	4	< 0.01	< 0.01	< 0.01

Second part, led by results:

Mouse CLhep, % Hepatic blood flow [2] [%]	CLhep predicted at 1 μM [2] [mL/min/kg]	fraction unbound at 6 h, 5 μM [3, 4]	fraction unbound at 6 h, 5 μM [3, 5]	fraction unbound at 6 h, 5 μM [3, 6]	Compound	inhibition at 10 µM [1] [%]	fraction unbound at 6 h, 5 μM ([3]; human, fraction unbound as percent, read-out: fu in human plasma)	fraction unbound at 6 h, 5 μM ([3]; mouse, read-out: fu in mouse plasma)	fraction unbound at 6 h, 5 μM ([3]; rat, read-out: fu in rat plasma)
98	88.1	0.002	0.004	0.004	Cc1cc(Cl)cc2sc(O[C@@H]3CCN(C(=O)CCCS(=O)(=O)c4cccc(Br)c4)C[C@H]3F)nc12 [VU6047607]				
95	85.9	0.001	0.004	0.002	Cc1cc(Cl)cc2sc(O[C@@H]3CCN(C(=O)CCCS(=O)(=O)c4cccc(Br)c4)C[C@@H]3F)nc12 [VU6047608]				
97	87.6	0.002	0.008	0.004	Cc1cc(Cl)cc2sc(O[C@H]3CCN(C(=O)CCCS(=O)(=O)c4cccc(Br)c4)C[C@@H]3F)nc12 [VU6047609]				
